Data set [1] in a line: Solubility in a solution comprising 1.5% (w/w) polysorbate 20. It is filed as physicochemical. Particulars: aqueous solution with 1.5% (w/w) polysorbate 20, aqueous with cosolvent or surfactant or cyclodextrin; 1.5% (w/w) polysorbate 20 at 40° C., pH 7. From the text: These represent significant differences in the water solubility of the aforementioned prodrugs.
The nature of the next data set: Solubility in water. It is filed as physicochemical. The protocol:
The present invention combines particle populations of at least two distinct aripiprazole prodrugs. In a preferred embodiment the composition comprises a particle population of aripiprazole lauroxil and aripiprazole cavoxil particles. The physical and chemical properties of the aripiprazole prodrugs within the scope of the present invention can vary considerably. For instance, aripiprazole cavoxil was determined to have a solubility in water of less than about 1 μg/ml, whereas aripiprazole lauroxil was determined to have a solubility of less than about 4 ng/mL.

In general, solubility refers to how much of the substance goes into solution per volume. A lower solubility goes with a poorly soluble substance. Regarding `CCCCCC(=O)OCN1C(=O)CCc2ccc(OCCCCN3CCN(c4cccc(Cl)c4Cl)CC3)cc21` [aripiprazole cavoxil, (7-(4-(4-(2,3-Dichlorophenyl)piperazin-1-yl)butoxy)-2-oxo-3,4-dihydroquinolin-1(2H)yl)methyl hexanoate], the solubility is under 50 µg/mL in data set [1] and under 1 µg/mL in the data set “Solubility in water”.
For `CCCCCCCCCCCC(=O)OCN1C(=O)CCc2ccc(OCCCCN3CCN(c4cccc(Cl)c4Cl)CC3)cc21` [aripiprazole lauroxil, Dodecanoic acid, [7-[4-[4-(2,3-dichlorophenyl)-1-piperazinyl]butoxy]-3,4-dihydro-2-oxo-1(2H)-quinolinyl]methyl ester], the solubility in data set [1] is under 2 µg/mL; in the data set “Solubility in water”, under 0.004 µg/mL.

The values above are taken from US10159671B2, “Compositions of multiple aripiprazole prodrugs” (ALKERMES PHARMA IRELAND LIMITED, priority 2016, dated 2018).
